From ChEMBL document CHEMBL5331051, “Cationic, amphipathic small molecules based on a triazine-piperazine-triazine scaffold as a new class of antimicrobial agents” (Eur J Med Chem, 2022)
The source made the active and inactive calls. The rule behind the calls is not given here.

Columns and labels:
[1] = system: Pseudomonas aeruginosa; assay: Antibacterial activity against multidrug-resistant Pseudomonas aeruginosa CCARM 2095 strain assessed as fractional inhibitory concentration index in presence of chloramphenicol by checkerboard assay; format: functional
[2] = system: Pseudomonas aeruginosa; assay: Antibacterial activity against multidrug-resistant Pseudomonas aeruginosa CCARM 2095 strain assessed as chloramphenicol MIC by checkerboard assay; format: functional
[3] = system: Pseudomonas aeruginosa; assay: Antibacterial activity against multidrug-resistant Pseudomonas aeruginosa CCARM 2095 strain assessed as fractional inhibitory concentration in presence of chloramphenicol by checkerboard assay; format: functional
[4] = system: Pseudomonas aeruginosa; assay: Additive antibacterial activity against multidrug-resistant Pseudomonas aeruginosa CCARM 2095 strain assessed as bacterial growth inhibition in presence of oxacillin by checkerboard assay; format: functional
[5] = system: Staphylococcus aureus; assay: Additive antibacterial activity against methicillin-resistant Staphylococcus aureus CCARM 3089 strain assessed as ciprofloxacin MIC by checkerboard assay; format: functional
[6] = system: Pseudomonas aeruginosa; assay: Additive antibacterial activity against multidrug-resistant Pseudomonas aeruginosa CCARM 2095 strain assessed as oxacillin fractional inhibitory concentration by checkerboard assay; format: functional
[7] = system: Pseudomonas aeruginosa; assay: Additive antibacterial activity against multidrug-resistant Pseudomonas aeruginosa CCARM 2095 strain assessed as Oxacillin MIC by checkerboard assay; format: functional
[8] = system: Lipopolysaccharide (LPS); assay: Binding affinity to Escherichia coli O111:B4 lipopolysaccharide assessed as suppression of FTIC labeled LPS binding to mouse RAW264.7 cells at 20 ug/ml pretreated LPS with cells for 1 hr followed by compound addition measured after 1 hr by flow cytometer assay (reference value: 48.12%); format: cell-based; settings: dose 20.0 µg/ml
[9] = system: Pseudomonas aeruginosa; assay: Antibacterial activity against multidrug-resistant Pseudomonas aeruginosa CCARM 2095 strain assessed as fractional inhibitory concentration by checkerboard assay; format: functional
[10] = system: Pseudomonas aeruginosa; assay: Antibacterial activity against multidrug-resistant Pseudomonas aeruginosa CCARM 2095 strain assessed as bacterial growth inhibition by checkerboard assay; format: functional
[11] = system: Staphylococcus aureus; assay: Antibacterial activity against methicillin-resistant Staphylococcus aureus CCARM 3089 strain assessed as bacterial growth inhibition by checkerboard assay; format: functional
[12] = system: Pseudomonas aeruginosa; assay: Additive antibacterial activity against multidrug-resistant Pseudomonas aeruginosa CCARM 2095 strain assessed as fractional inhibitory concentration index in presence of oxacillin by checkerboard assay; format: functional
[13] = system: Pseudomonas aeruginosa; assay: Antibacterial activity against multidrug-resistant Pseudomonas aeruginosa CCARM 2095 strain assessed as bacterial growth inhibition in presence of chloramphenicol by checkerboard assay; format: functional
[14] = system: Pseudomonas aeruginosa; assay: Additive antibacterial activity against multidrug-resistant Pseudomonas aeruginosa CCARM 2095 strain assessed as fractional inhibitory concentration in presence of oxacillin by checkerboard assay; format: functional
[15] = system: Pseudomonas aeruginosa; assay: Additive antibacterial activity against multidrug-resistant Pseudomonas aeruginosa CCARM 2095 strain assessed as fractional inhibitory concentration index in presence of ciprofloxacin by checkerboard assay; format: functional
[16] = system: Pseudomonas aeruginosa; assay: Additive antibacterial activity against multidrug-resistant Pseudomonas aeruginosa CCARM 2095 strain assessed as fractional inhibitory concentration index in presence of chloramphenicol by checkerboard assay; format: functional
[17] = system: Staphylococcus aureus; assay: Antibacterial activity against multidrug-resistant Staphylococcus aureus CCARM 3089 strain assessed as fractional inhibitory concentration index in presence of ciprofloxacin by checkerboard assay; format: functional
[18] = system: Pseudomonas aeruginosa; assay: Additive antibacterial activity against multidrug-resistant Pseudomonas aeruginosa CCARM 2095 strain assessed as bacterial growth inhibition in presence of chloramphenicol by checkerboard assay; format: functional
[19] = system: Pseudomonas aeruginosa; assay: Additive antibacterial activity against multidrug-resistant Pseudomonas aeruginosa CCARM 2095 strain assessed as bacterial growth inhibition by checkerboard assay; format: functional
[20] = system: Pseudomonas aeruginosa; assay: Additive antibacterial activity against multidrug-resistant Pseudomonas aeruginosa CCARM 2095 strain assessed as chloramphenicol fractional inhibitory concentration by checkerboard assay; format: functional
[21] = system: Pseudomonas aeruginosa; assay: Additive antibacterial activity against multidrug-resistant Pseudomonas aeruginosa CCARM 2095 strain assessed as fractional inhibitory concentration in presence of chloramphenicol by checkerboard assay; format: functional
[22] = system: Staphylococcus aureus; assay: Additive antibacterial activity against methicillin-resistant Staphylococcus aureus CCARM 3089 strain assessed as oxacillin MIC by checkerboard assay; format: functional
[23] = system: Staphylococcus aureus; assay: Additive antibacterial activity against methicillin-resistant Staphylococcus aureus CCARM 3089 strain assessed as bacterial growth inhibition in presence of oxacillin by checkerboard assay; format: functional
[24] = system: Staphylococcus aureus; assay: Synergistic antibacterial activity against multidrug-resistant Staphylococcus aureus CCARM 3089 strain assessed as fractional inhibitory concentration index in presence of chloramphenicol by checkerboard assay; format: functional
[25] = system: Staphylococcus aureus; assay: Synergistic antibacterial activity against multidrug-resistant Staphylococcus aureus CCARM 3089 strain assessed as chloramphenicol fractional inhibitory concentration by checkerboard assay; format: functional
[26] = system: Staphylococcus aureus; assay: Potency index, ratio of melittin MIC to test compound MIC against methicillin-resistant Staphylococcus aureus CCARM 3095 assessed as bacterial growth inhibition measured at 18 to 24 hrs by microdilution assay; format: functional; settings: time 18-24 hrs
[27] = system: Pseudomonas aeruginosa; assay: Antibiofilm activity against multidrug-resistant Pseudomonas aeruginosa assessed as bacterial growth inhibition at 1 ug/ml relative to control; format: functional
[28] = system: Pseudomonas aeruginosa; assay: Synergistic bactericidal activity against multidrug-resistant Pseudomonas aeruginosa CCARM 2095 at 0.5 times MIC measured after 60 mins in presence of 0.5 times MIC of oxacillin by time-kill kinetics assay; format: functional, organism-based
[29] = system: Staphylococcus aureus; assay: Additive antibacterial activity against multidrug-resistant Staphylococcus aureus CCARM 3089 strain assessed as chloramphenicol fractional inhibitory concentration by checkerboard assay; format: functional
[30] = system: Pseudomonas aeruginosa; assay: Synergistic bactericidal activity against multidrug-resistant Pseudomonas aeruginosa CCARM 2095 at 0.5 times MIC measured after 60 mins in presence of 0.5 times MIC of ciprofloxacin by time-kill kinetics assay; format: functional, organism-based
[31] = system: Pseudomonas aeruginosa; assay: Synergistic bactericidal activity against multidrug-resistant Pseudomonas aeruginosa CCARM 2095 at 0.5 times MIC measured after 60 mins in presence of 0.5 times MIC of chloramphenicol by time-kill kinetics assay; format: functional, organism-based
[32] = system: Staphylococcus aureus; assay: Potency index, ratio of melittin MIC to test compound MIC against methicillin-resistant Staphylococcus aureus CCARM 3090 assessed as bacterial growth inhibition measured at 18 to 24 hrs by microdilution assay; format: functional; settings: time 18-24 hrs
[33] = system: Staphylococcus aureus; assay: Synergistic antibacterial activity against methicillin-resistant Staphylococcus aureus CCARM 3089 strain assessed as bacterial growth inhibition in presence of chloramphenicol by checkerboard assay; format: functional
[34] = system: Staphylococcus aureus; assay: Potency index, ratio of melittin MIC to test compound MIC against methicillin-resistant Staphylococcus aureus CCARM 3089 assessed as bacterial growth inhibition measured at 18 to 24 hrs by microdilution assay; format: functional; settings: time 18-24 hrs
[35] = system: Pseudomonas aeruginosa; assay: Bactericidal activity against multidrug-resistant Pseudomonas aeruginosa CCARM 2095 measured after 24 hrs by time-kill kinetics assay; format: functional, organism-based
[36] = system: Escherichia coli; assay: Antibacterial activity against Escherichia coli assessed as bacterial growth inhibition measured at 18 to 24 hrs in presence of CDFA based microdilution assay; format: functional; settings: time 18-24 hrs
[37] = system: Pseudomonas aeruginosa; assay: Bacteriostatic activity against multidrug-resistant Pseudomonas aeruginosa CCARM 2095 measured after 24 hrs by time-kill kinetics assay; format: functional, organism-based
[38] = system: Staphylococcus aureus; assay: Synergistic antibacterial activity against methicillin-resistant Staphylococcus aureus CCARM 3089 strain assessed as chloramphenicol MIC by checkerboard assay; format: functional
[39] = Drug localization in Escherichia coli KCTC 1682 cytoplasm incubated for 0.5 hrs by CDFA based confocal laser scanning microscopic analysis; format: ADME, subcellular
[40] = system: Staphylococcus aureus; assay: Synergistic antibacterial activity against methicillin-resistant Staphylococcus aureus CCARM 3089 strain assessed as fractional inhibitory concentration in presence of chloramphenicol by checkerboard assay; format: functional

Structure (SMILES) | MIC [4] | FIC [6] | MIC [7] | Flu intensity [8] | MIC [11] | fractional inhibitory concentration index (FICI) [12] | FIC [14] | fractional inhibitory concentration index (FICI) [24] | FIC [25] | Ratio [26] | FIC [29] | Ratio [32] | MIC [33] | Ratio [34] | MIC [38] | FIC [40] | other results
NCCNc1nc(NCCN)nc(N2CC(Cc3ccccc3)N(c3nc(NCCN)nc(NCCN)n3)CC2Cc2ccccc2)n1 (configuration not stated) | 8 µg/mL | 0.5 | 512 µg/mL | 33.4% | 32 µg/mL | 1 | 0.5 | – | – | – | – | – | – | – | – | – | fractional inhibitory concentration index (FICI) [1]: 1.25; MIC [2]: 256 µg/mL; FIC [3]: 1 µg/mL; MIC [5]: 128 µg/mL; FIC [9]: 0.25; MIC [10]: 16 µg/mL; MIC [13]: 16 µg/mL
NCCCCNc1nc(NCCCCN)nc(N2CC(Cc3ccccc3)N(c3nc(NCCCCN)nc(NCCCCN)n3)CC2Cc2ccccc2)n1 (configuration not stated) | – | – | – | 21.2% | 4 µg/mL | – | – | – | – | – | – | – | – | – | – | – | –
N=C(N)NCCNc1nc(NCCNC(=N)N)nc(N2CC(Cc3ccccc3)N(c3nc(NCCNC(=N)N)nc(NCCNC(=N)N)n3)CC2Cc2ccccc2)n1 (configuration not stated) | 16 µg/mL | 0.25 | 256 µg/mL | 40.6% | 8 µg/mL | 0.75 | 0.5 | – | – | – | – | – | – | – | – | – | fractional inhibitory concentration index (FICI) [15]: 1; fractional inhibitory concentration index (FICI) [16]: 0.75; fractional inhibitory concentration index (FICI) [17]: 1.25; MIC [18]: 8 µg/mL; MIC [19]: 16 µg/mL; FIC [20]: 0.25; FIC [21]: 0.5; MIC [22]: 128 µg/mL; MIC [23]: 4 µg/mL
NCCN(CCN)c1nc(NCc2ccccc2)nc(N2CC(Cc3ccccc3)N(c3nc(NCc4ccccc4)nc(N(CCN)CCN)n3)CC2Cc2ccccc2)n1 (configuration not stated) | – | – | – | 16.4% | 4 µg/mL | – | – | 0.5 | 0.25 | 2 | 0.25 | 2 | 2 µg/mL | 2 | 128 µg/mL | 0.5 | inhibition at 1 µg/mL [27]: 50%; Activity [28]: Active; Activity [30]: Active; Activity [31]: Active; Activity [35]: inactive; MIC [36]: 8 µg/mL; Activity [37]: inactive; Drug uptake [39]: Active
NCCCN(CCCN)c1nc(NCc2ccccc2)nc(N2CC(Cc3ccccc3)N(c3nc(NCc4ccccc4)nc(N(CCCN)CCCN)n3)CC2Cc2ccccc2)n1 (configuration not stated) | – | – | – | 27.4% | 4 µg/mL | – | – | 0.5 | 0.25 | 2 | 0.25 | 2 | 1 µg/mL | 2 | 128 µg/mL | 0.5 | –
